Reference: PMC10746112, “Synthesis and Pro-Apoptotic Effects of Nitrovinylanthracenes and Related Compounds in Chronic Lymphocytic Leukaemia (CLL) and Burkitt’s Lymphoma (BL)” (Molecules, 2023)

Columns and labels:
[1] = test system: HL-60 promyelocytic leukaemia cells; experiment: alamarBlue cell viability assay; conditions: Homo sapiens, HL-60, 24 h
PGA-1 CLL cells = experiment: Inhibitor studies (NAC, Z-VAD-FMK), Annexin V/PI FACS; assay type: cell-based; conditions: 48 h
Procedure: (§1) Additional annexin V/PI FACS analysis was carried out in the presence of a reactive oxygen species (ROS) inhibitor (N-acetylcysteine) and a pan-caspase inhibitor (Z-VAD-FMK) in order to study their effects (if any) on the pro-apoptotic effects of 11h (Figure 6). […] Similar results were obtained in the HG-3 cell line at 2.5 µM (90% to 31%) and 5 µM of 11h (84% to 51%). In the presence of the caspase inhibitor Z-VAD-FMK ([…]), the apoptosis induced by compound 11h decreased from 63% to 25% at 2.5 µM and from 79% to 43% at 5 µM in the PGA1 cell line. Similar results were obtained in the HG-3 cell line at 2.5 µM (84% to 29%) and 5 µM (74% to 50%). These findings indicate that both caspases and ROS may be involved in the mechanism of apoptosis for compound 11h.
(§2) The HG-3 and PGA-1 CLL cells (5 × 10^4 cells/mL) were pre-treated at 37 °C with either 5 mM N-acetylcysteine (NAC) for 1 h or 40 μM caspase inhibitor (Z-VAD-FMK; MBL International, Co., Woburn, MA, USA) for 4 h prior to treatment with (11 h at 5 μM) for 48 h. Annexin V/PI FACS analysis was then carried out as described above in Section 4.5.

HG-3 CLL cells = experiment: as above; assay type: cell-based; conditions: 48 h
Procedure: as §1, §2

DG-75 BL cells = experiment: Annexin V/PI apoptotic assay (FACS); assay type: cell-based; conditions: 10 µM, 48 h, total (early + late) apoptosis
Procedure: (§3) The chemotherapeutic drug taxol was used as a positive control. The pro-apoptotic effects of the selected nitrostyrene compounds 11g, 11h, 11i, 11j, 11k and 11l (10 μM) were determined using FITC (fluorescein isothiocyanate), Annexin V/PI (propidium iodide) staining and FACS (fluorescence-activated cell sorting) analysis to characterise the mode of cellular death induced by the synthesised compounds. Four populations were produced in this assay: Annexin-V- and PI-negative (Q4, healthy cells), Annexin-V-positive and PI-negative (Q3, early apoptosis), Annexin-V- and PI-positive (Q2, late apoptosis) and Annexin-V-negative and PI-positive (Q1, necrosis), which were easily identified and quantified. Apoptosis was assessed as % total apoptosis by a combination of early and late apoptosis (Q3 and Q2, respectively). […] The identification of compounds that can induce apoptosis in cancer cells is required in the development of potential lead structures for anticancer drugs.
(§4) The BL cells DG-75 and MUTU-I (750,000) were treated at 37 °C with either vehicle (0.1% (v/v) EtOH), […] taxol (10 μM) and incubated for 24 h (MUTU-1) or 48 h (DG-75). The CLL cells PGA1 and HG3 (1 × 10^6 cells/mL) were treated at 37 °C with either vehicle (1% (v/v) DMSO) or the nitrostyrene compounds 19a (10 μM, 5 μM and 1 μM) and 19g, 19i, 19l and 19m (10 μM and 1 μM) for 48 h. The cells were then harvested by centrifugation at 400× g in a temperature-controlled Sorvall centrifuge and rinsed with 0.5 mL of Ca^2+ Annexin-V-binding buffer (0.1 M HEPES, pH 7.4; 0.14 M NaCl; 25 mM CaCl2). The samples were resuspended in 50 µL FITC Annexin V (diluted 1:33 in Ca^2+ Annexin V-binding buffer), incubated on ice for 10 min (protected from light), washed with Annexin-V-binding buffer and re-suspended in 500 µL of propidium iodide (PI) solution (0.5 µg/mL). The samples were analysed within 1 h using a BD Accuri C6 flow cytometer counting 10,000 cells and analysed using the FlowJo software (FlowJo LLC, Ashland, OR, USA) package.

MUTU-I BL cells = experiment: Annexin V/PI apoptotic assay (FACS); assay type: cell-based; conditions: 10 µM, 24 h, total (early + late) apoptosis
Procedure: as §3, §4

[2] = test system: MUTU-I Burkitt’s lymphoma cell line; conditions: nitrostyrenes, 24 h, cited from earlier work
[3] = test system: MCF-7 human breast cancer cells; experiment: alamarBlue cell viability assay; conditions: MCF7, 72 h
[4] = test system: HeLa cervical cancer cells; experiment: alamarBlue cell viability assay; conditions: Homo sapiens, 24 h
[5] = test system: DG-75 Burkitt’s lymphoma cell line; conditions: nitrostyrenes, 1 µM, 48 h; cited from earlier work

## C/C(=C\c1cccc(Cl)c1)[N+](=O)[O-] [Compound 11h]
[1]; read-out: % Viable Cells Remaining HL60 24 h 1 µM
  viability at 1 µM: 78.2%
[1]; read-out: % Viable Cells Remaining HL60 24 h 10 µM
  viability at 10 µM: 6.8%
PGA-1 CLL cells; PGA1, 2.5 µM compound, in the presence of NAC
  apoptosis: 21%
PGA-1 CLL cells; PGA1, 2.5 µM compound, in the presence of Z-VAD-FMK
  apoptosis: 25%
PGA-1 CLL cells; PGA1, 2.5 µM compound, without NAC
  apoptosis: 68%
PGA-1 CLL cells; PGA1, 2.5 µM compound, without Z-VAD-FMK
  apoptosis: 63%
PGA-1 CLL cells; PGA1, 5 µM compound, in the presence of NAC
  apoptosis: 33%
PGA-1 CLL cells; PGA1, 5 µM compound, in the presence of Z-VAD-FMK
  apoptosis: 43%
PGA-1 CLL cells; PGA1, 5 µM compound, without NAC
  apoptosis: 88%
PGA-1 CLL cells; PGA1, 5 µM compound, without Z-VAD-FMK
  apoptosis: 79%
HG-3 CLL cells; HG-3, 2.5 µM compound, in the presence of NAC
  apoptosis: 31%
HG-3 CLL cells; HG-3, 2.5 µM compound, in the presence of Z-VAD-FMK
  apoptosis: 29%
HG-3 CLL cells; HG-3, 2.5 µM compound, without NAC
  apoptosis: 90%
HG-3 CLL cells; HG-3, 2.5 µM compound, without Z-VAD-FMK
  apoptosis: 84%
HG-3 CLL cells; HG-3, 5 µM compound, in the presence of NAC
  apoptosis: 51%
HG-3 CLL cells; HG-3, 5 µM compound, in the presence of Z-VAD-FMK
  apoptosis: 50%
HG-3 CLL cells; HG-3, 5 µM compound, without NAC
  apoptosis: 84%
HG-3 CLL cells; HG-3, 5 µM compound, without Z-VAD-FMK
  apoptosis: 74%
DG-75 BL cells
  DG-75 Apoptosis (%): 92.0%
MUTU-I BL cells
  MUTU-I Apoptosis (%): 82.6%
[2]; 1 µM
  % Viable Cells Remaining MUTU-1 24 h 1 µM: 39.80%
[2]; 10 µM
  % Viable Cells Remaining MUTU-1 24 h 10 µM: 10.28%
[3]; read-out: % Viable Cells Remaining MCF-7 72 h 1 µM
  viability at 1 µM: 94.3%
[3]; read-out: % Viable Cells Remaining MCF-7 72 h 10 µM
  viability at 10 µM: 29.7%
[4]; read-out: % Viable Cells Remaining HeLa 24 h 1 µM
  viability at 1 µM: 90.6%
[4]; read-out: % Viable Cells Remaining HeLa 24 h 10 µM
  viability at 10 µM: 23.2%
[5]
  % Viable Cells Remaining DG-75 48 h 1 µM: 84.50%
